# Experimental data taken from paper PMC5218480 (PLoS ONE, 2017).
# Tested on: MV-4-11 cells
# Assay: Gene expression microarray analysis (Affymetrix PrimeView) and GSEA
# Type: cell-based, human
# Set-up: RFU PODN (11730768_x_at) / Fold change /veh PODN (11730768_x_at) / RFU LINC00158 (11744669_a_at) / Fold change /veh LINC00158 (11744669_a_at) / RFU DUSP10 (11751237_a_at) / Fold change /veh DUSP10 (11751237_a_at) / RFU ID3 (11757404_x_at) / Fold change /veh ID3 (11757404_x_at) / RFU PLEKHG5 (11737974_s_at) / Fold change /veh PLEKHG5 (11737974_s_at) / RFU LRRC4B (11730491_at) / Fold change /veh LRRC4B (11730491_at) / RFU GIMAP4 (11747438_a_at) / Fold change /veh GIMAP4 (11747438_a_at) / RFU KRT8 (11758183_x_at) / Fold change /veh KRT8 (11758183_x_at) / RFU CNN1 (11734310_a_at) / Fold change /veh CNN1 (11734310_a_at) / RFU VPS37D (11726825_at) / Fold change /veh VPS37D (11726825_at) / RFU C10orf10 (11716522_x_at) / Fold change /veh C10orf10 (11716522_x_at) / RFU KIR2DL2 /// KIR2DL4 /// KIR2DL5A /// KIR2DL5B /// KIR2DS1 /// KIR2DS2 /// KIR2DS3 /// KIR2DS4 /// KIR3DL3 /// KIR3DL3 /// KIR3DS1 (11738374_at) / Fold change /veh KIR2DL2 /// KIR2DL4 /// KIR2DL5A /// KIR2DL5B /// KIR2DS1 /// KIR2DS2 /// KIR2DS3 /// KIR2DS4 /// KIR3DL3 /// KIR3DL3 /// KIR3DS1 (11738374_at) / RFU C1QL1 (11718748_at) / Fold change /veh C1QL1 (11718748_at) / RFU TMPRSS4 (11747572_a_at) / Fold change /veh TMPRSS4 (11747572_a_at) / RFU HAMP (11756126_x_at) / Fold change /veh HAMP (11756126_x_at) / RFU RNFT2 (11725882_a_at) / Fold change /veh RNFT2 (11725882_a_at) / RFU NR4A2 (11747474_a_at) / Fold change /veh NR4A2 (11747474_a_at) / RFU ABCC12 (11746883_a_at) / Fold change /veh ABCC12 (11746883_a_at) / RFU TMEM136 (11760407_x_at) / Fold change /veh TMEM136 (11760407_x_at) / RFU CLDN22 /// WWC2 (11732394_at) / Fold change /veh CLDN22 /// WWC2 (11732394_at) / RFU HLA-DPB1 (11760878_x_at) / Fold change /veh HLA-DPB1 (11760878_x_at) / RFU SPINT1 (11716480_a_at) / Fold change /veh SPINT1 (11716480_a_at) / RFU GAP43 (11754022_s_at) / Fold change /veh GAP43 (11754022_s_at) / RFU A4GNT (11735810_at) / Fold change /veh A4GNT (11735810_at) / RFU PRB3 (11715151_x_at) / Fold change /veh PRB3 (11715151_x_at) / RFU TUBB4B (11761932_at) / Fold change /veh TUBB4B (11761932_at) / RFU CAPN14 (11732068_a_at) / Fold change /veh CAPN14 (11732068_a_at) / RFU TMCC2 (11721928_a_at) / Fold change /veh TMCC2 (11721928_a_at) / RFU IRGQ (11745062_a_at) / Fold change /veh IRGQ (11745062_a_at) / RFU FAM174B (11720279_a_at) / Fold change /veh FAM174B (11720279_a_at) / RFU TMPRSS4 (11748680_a_at) / Fold change /veh TMPRSS4 (11748680_a_at) / RFU FAM212B (11763350_a_at) / Fold change /veh FAM212B (11763350_a_at) / RFU PLEKHG5 (11743358_a_at) / Fold change /veh PLEKHG5 (11743358_a_at) / RFU ZSCAN30 (11745921_a_at) / Fold change /veh ZSCAN30 (11745921_a_at) / RFU CMKLR1 (11741424_a_at) / Fold change /veh CMKLR1 (11741424_a_at) / RFU LOC101060620 /// MAPK8IP1 (11723275_at) / Fold change /veh LOC101060620 /// MAPK8IP1 (11723275_at) / RFU SPTSSB (11747773_x_at) / Fold change /veh SPTSSB (11747773_x_at) / RFU PRSS12 (11739890_at) / Fold change /veh PRSS12 (11739890_at) / RFU BIN1 (11741810_x_at) / Fold change /veh BIN1 (11741810_x_at) / RFU WNT11 (11732464_a_at) / Fold change /veh WNT11 (11732464_a_at) / RFU C10orf10 (11716521_a_at) / Fold change /veh C10orf10 (11716521_a_at) / RFU C5orf56 (11738089_at) / Fold change /veh C5orf56 (11738089_at) / RFU CYB561 (11721691_x_at) / Fold change /veh CYB561 (11721691_x_at) / RFU ANKRD19P (11752326_a_at) / Fold change /veh ANKRD19P (11752326_a_at) / RFU OR2T12 /// OR2T33 /// OR2T8 (11738714_s_at) / Fold change /veh OR2T12 /// OR2T33 /// OR2T8 (11738714_s_at) / RFU VCAN (11748164_a_at) / Fold change /veh VCAN (11748164_a_at) / RFU JSRP1 (11732532_at) / Fold change /veh JSRP1 (11732532_at) / RFU KRTAP10-11 (11738290_x_at) / Fold change /veh KRTAP10-11 (11738290_x_at) / RFU MYO3A (11730013_a_at) / Fold change /veh MYO3A (11730013_a_at) / RFU EBF3 (11725865_a_at) / Fold change /veh EBF3 (11725865_a_at) / RFU CAMK2N1 (11719241_x_at) / Fold change /veh CAMK2N1 (11719241_x_at) / RFU C5orf56 (11738088_a_at) / Fold change /veh C5orf56 (11738088_a_at) / RFU OLFML3 (11715873_a_at) / Fold change /veh OLFML3 (11715873_a_at) / RFU LOC100653217 /// NTM (11731650_a_at) / Fold change /veh LOC100653217 /// NTM (11731650_a_at) / RFU MAPK11 (11762145_a_at) / Fold change /veh MAPK11 (11762145_a_at) / RFU FIZ1 (11724087_x_at) / Fold change /veh FIZ1 (11724087_x_at) / RFU OASL (11726364_x_at) / Fold change /veh OASL (11726364_x_at) / RFU SOX15 (11748057_x_at) / Fold change /veh SOX15 (11748057_x_at) / RFU CD79A (11719716_a_at) / Fold change /veh CD79A (11719716_a_at) / RFU HIST1H1D (11736915_at) / Fold change /veh HIST1H1D (11736915_at) / RFU CASKIN2 (11723855_a_at) / Fold change /veh CASKIN2 (11723855_a_at) / RFU LOC730098 (11760151_x_at) / Fold change /veh LOC730098 (11760151_x_at) / RFU OR4N2 (11742367_at) / Fold change /veh OR4N2 (11742367_at) / RFU PRRT2 (11749266_a_at) / Fold change /veh PRRT2 (11749266_a_at) / RFU SNX32 (11753110_a_at) / Fold change /veh SNX32 (11753110_a_at) / RFU CDHR5 (11726645_a_at) / Fold change /veh CDHR5 (11726645_a_at) / RFU RCAN1 (11760418_a_at) / Fold change /veh RCAN1 (11760418_a_at) / RFU FAM167A (11723789_a_at) / Fold change /veh FAM167A (11723789_a_at) / RFU FAM26E (11764081_at) / Fold change /veh FAM26E (11764081_at) / RFU ISYNA1 (11749810_s_at) / Fold change /veh ISYNA1 (11749810_s_at) / RFU ACY1 (11761880_at) / Fold change /veh ACY1 (11761880_at) / RFU 11764098_at / Fold change /veh 11764098_at / RFU SAMD14 (11745864_x_at) / Fold change /veh SAMD14 (11745864_x_at) / RFU NPB (11741838_a_at) / Fold change /veh NPB (11741838_a_at) / RFU TMPRSS6 (11731388_a_at) / Fold change /veh TMPRSS6 (11731388_a_at) / RFU KRTAP10-2 (11738614_at) / Fold change /veh KRTAP10-2 (11738614_at) / RFU ARHGAP8 /// PRR5-ARHGAP8 (11727945_x_at) / Fold change /veh ARHGAP8 /// PRR5-ARHGAP8 (11727945_x_at) / RFU KRTAP5-7 /// NADSYN1 (11734609_at) / Fold change /veh KRTAP5-7 /// NADSYN1 (11734609_at) / RFU RASL12 (11751679_a_at) / Fold change /veh RASL12 (11751679_a_at) / RFU CDKN2B (11736163_a_at) / Fold change /veh CDKN2B (11736163_a_at) / RFU PRF1 (11729649_at) / Fold change /veh PRF1 (11729649_at) / RFU, ZNF638 /// ZNF638-IT1 / Fold change vs veh, ZNF638 /// ZNF638-IT1 / RFU, PANK3 / Fold change vs veh, PANK3 / RFU, SH3YL1 / Fold change vs veh, SH3YL1 / RFU, ZEB2 / Fold change vs veh, ZEB2 / RFU, NRIP1 / Fold change vs veh, NRIP1 / RFU, PTTG1IP / Fold change vs veh, PTTG1IP / RFU, CAPN2 / Fold change vs veh, CAPN2 / RFU, MED14 / Fold change vs veh, MED14 / RFU, SNORA58 / Fold change vs veh, SNORA58 / RFU, C1orf63 / Fold change vs veh, C1orf63 / RFU, LRRFIP1 / Fold change vs veh, LRRFIP1 / RFU, NDUFAF7 / Fold change vs veh, NDUFAF7 / RFU, SLC12A2 / Fold change vs veh, SLC12A2 / RFU, IBTK / Fold change vs veh, IBTK / RFU, ESF1 / Fold change vs veh, ESF1 / Fold change vs veh, TMEM50B / RFU, TAOK1 / Fold change vs veh, TAOK1 / RFU, ACBD3 / Fold change vs veh, ACBD3 / RFU, TMA16 / Fold change vs veh, TMA16 / RFU, RWDD3 / Fold change vs veh, RWDD3 / RFU, BCAT1 / Fold change vs veh, BCAT1 / RFU, EDEM3 / Fold change vs veh, EDEM3 / RFU, TMEM33 / Fold change vs veh, TMEM33 / RFU, WDR75 / Fold change vs veh, WDR75 / RFU, AHCTF1 / Fold change vs veh, AHCTF1 / RFU, TFRC / Fold change vs veh, TFRC / RFU, ZDHHC17 / Fold change vs veh, ZDHHC17 / RFU, NOM1 / Fold change vs veh, NOM1 / RFU, ARL8B / Fold change vs veh, ARL8B / RFU, ZBTB11 / Fold change vs veh, ZBTB11 / RFU, TAMM41 / Fold change vs veh, TAMM41 / RFU, KIAA1704 /// LOC100996395 / Fold change vs veh, KIAA1704 /// LOC100996395 / RFU, ING1 / Fold change vs veh, ING1 / RFU, TRMT61B / Fold change vs veh, TRMT61B / RFU, FUBP3 / Fold change vs veh, FUBP3 / RFU, TP53 / Fold change vs veh, TP53 / RFU, TNKS2 / Fold change vs veh, TNKS2 / RFU, ZFP14 / Fold change vs veh, ZFP14 / RFU, ACTR2 / Fold change vs veh, ACTR2 / RFU, PPP3R1 / Fold change vs veh, PPP3R1 / RFU, PIK3R1 / Fold change vs veh, PIK3R1 / RFU, HNRNPA1 / Fold change vs veh, HNRNPA1 / RFU, RNF170 / Fold change vs veh, RNF170 / RFU, ZNF28 / Fold change vs veh, ZNF28 / RFU, RNGTT / Fold change vs veh, RNGTT / RFU, OGT / Fold change vs veh, OGT / RFU, BRD1 / Fold change vs veh, BRD1 / RFU, MARS / Fold change vs veh, MARS / RFU, ZNF655 / Fold change vs veh, ZNF655 / RFU, FAHD1 / Fold change vs veh, FAHD1 / RFU, BDP1 / Fold change vs veh, BDP1 / RFU, LRRCC1 / Fold change vs veh, LRRCC1 / RFU, ARID1A / Fold change vs veh, ARID1A / RFU, ZNF146 / Fold change vs veh, ZNF146 / RFU, ZNF330 / Fold change vs veh, ZNF330 / RFU, GPN3 / Fold change vs veh, GPN3 / RFU, C9orf123 / Fold change vs veh, C9orf123 / RFU, N4BP2L2 / Fold change vs veh, N4BP2L2 / RFU, ARFIP1 / Fold change vs veh, ARFIP1 / RFU, FAM179B / Fold change vs veh, FAM179B / RFU, BCL10 / Fold change vs veh, BCL10 / RFU, UHRF1BP1L / Fold change vs veh, UHRF1BP1L / RFU, BET1 / Fold change vs veh, BET1 / RFU, CNOT2 / Fold change vs veh, CNOT2 / RFU, ZNF268 / Fold change vs veh, ZNF268 / Fold change vs veh, ZNF507 / RFU, DGCR2 / Fold change vs veh, DGCR2 / RFU, WDSUB1 / Fold change vs veh, WDSUB1 / Fold change vs veh, HSP90B1 /// MIR3652 / RFU, ADSS / Fold change vs veh, ADSS / RFU, GK / Fold change vs veh, GK / RFU, ZNF148 / Fold change vs veh, ZNF148 / RFU, TAF9 / Fold change vs veh, TAF9 / RFU, SLC1A5 / Fold change vs veh, SLC1A5 / RFU, SLMO2 / Fold change vs veh, SLMO2 / RFU, ABCC4 / Fold change vs veh, ABCC4 / RFU, LOC101060439 /// RAP1B / Fold change vs veh, LOC101060439 /// RAP1B / RFU, RFX7 / Fold change vs veh, RFX7 / RFU, GTPBP10 / Fold change vs veh, GTPBP10 / RFU, CNEP1R1 / Fold change vs veh, CNEP1R1 / RFU, BIVM-ERCC5 /// ERCC5 / Fold change vs veh, BIVM-ERCC5 /// ERCC5 / RFU, ILF3 / Fold change vs veh, ILF3 / RFU 11762660_at / Fold change /veh 11762660_at / RFU VCAN (11757783_s_at) / Fold change /veh VCAN (11757783_s_at) / RFU DDX43 (11728927_at) / Fold change /veh DDX43 (11728927_at) / RFU KRT8 (11758188_x_at) / Fold change /veh KRT8 (11758188_x_at) / RFU NKD1 (11759106_at) / Fold change /veh NKD1 (11759106_at) / RFU SRD5A1 (11742802_a_at) / Fold change /veh SRD5A1 (11742802_a_at) / RFU TPSAB1 /// TPSB2 (11721975_s_at) / Fold change /veh TPSAB1 /// TPSB2 (11721975_s_at) / RFU GSTM3 (11746129_a_at) / Fold change /veh GSTM3 (11746129_a_at) / RFU IL23R (11737362_x_at) / Fold change /veh IL23R (11737362_x_at) / RFU TMEM51 (11727254_a_at) / Fold change /veh TMEM51 (11727254_a_at) / RFU PIWIL2 (11732686_x_at) / Fold change /veh PIWIL2 (11732686_x_at) / RFU ORM1 (11744905_x_at) / Fold change /veh ORM1 (11744905_x_at) / RFU CCDC152 (11743942_at) / Fold change /veh CCDC152 (11743942_at) / RFU ECM1 (11717891_a_at) / Fold change /veh ECM1 (11717891_a_at) / RFU IL23R (11748794_a_at) / Fold change /veh IL23R (11748794_a_at) / RFU TNFAIP8L3 (11732012_x_at) / Fold change /veh TNFAIP8L3 (11732012_x_at) / RFU MBOAT4 (11741988_at) / Fold change /veh MBOAT4 (11741988_at) / RFU 11764193_at / Fold change /veh 11764193_at / RFU TMEM53 (11763286_at) / Fold change /veh TMEM53 (11763286_at) / RFU MAGEB2 (11727129_at) / Fold change /veh MAGEB2 (11727129_at) / RFU TMEM200A (11744735_a_at) / Fold change /veh TMEM200A (11744735_a_at) / RFU CCDC152 (11751479_a_at) / Fold change /veh CCDC152 (11751479_a_at) / RFU FAM211A (11726209_a_at) / Fold change /veh FAM211A (11726209_a_at) / RFU RGS16 (11746705_a_at) / Fold change /veh RGS16 (11746705_a_at) / RFU VCAN (11755009_s_at) / Fold change /veh VCAN (11755009_s_at) / RFU RHOB (11743442_s_at) / Fold change /veh RHOB (11743442_s_at) / RFU RGS16 (11720943_a_at) / Fold change /veh RGS16 (11720943_a_at) / RFU RGS16 (11720944_at) / Fold change /veh RGS16 (11720944_at) / RFU, VPS4B / Fold change vs veh, VPS4B / RFU, CREB1 / Fold change vs veh, CREB1 / RFU, DNAJC13 / Fold change vs veh, DNAJC13 / RFU, GNAQ / Fold change vs veh, GNAQ / RFU, CDK5R1 / Fold change vs veh, CDK5R1 / RFU, ZRANB3 / Fold change vs veh, ZRANB3 / RFU, CUL4A / Fold change vs veh, CUL4A / RFU, CCNY / Fold change vs veh, CCNY / RFU, UFL1 / Fold change vs veh, UFL1 / RFU, COG3 / Fold change vs veh, COG3 / RFU, DIAPH2 / Fold change vs veh, DIAPH2 / RFU, SKA2 / Fold change vs veh, SKA2 / RFU, AFF3 / Fold change vs veh, AFF3 / RFU, LMF1 / Fold change vs veh, LMF1 / RFU, IPO11 / Fold change vs veh, IPO11 / RFU, DFFB / Fold change vs veh, DFFB / RFU, FOXP1 / Fold change vs veh, FOXP1 / RFU, CARD8 / Fold change vs veh, CARD8 / RFU, STRN3 / Fold change vs veh, STRN3 / RFU, ADK / Fold change vs veh, ADK / RFU, RASSF2 / Fold change vs veh, RASSF2 / RFU, WIPF1 / Fold change vs veh, WIPF1 / RFU, LARP1B / Fold change vs veh, LARP1B / RFU, RASA1 / Fold change vs veh, RASA1 / RFU, RB1 / Fold change vs veh, RB1 / RFU, PPFIA1 / Fold change vs veh, PPFIA1 / RFU, MAT2A / Fold change vs veh, MAT2A / RFU, CCT5 / Fold change vs veh, CCT5 / RFU, WDR92 / Fold change vs veh, WDR92 / RFU, CUX1 / Fold change vs veh, CUX1 / RFU, TTC7A / Fold change vs veh, TTC7A / RFU, TMEM135 / Fold change vs veh, TMEM135 / RFU, DEPTOR / Fold change vs veh, DEPTOR / RFU, CPM / Fold change vs veh, CPM / RFU, DNAJB6 / Fold change vs veh, DNAJB6 / RFU, CACNA2D3 / Fold change vs veh, CACNA2D3 / RFU, DTX4 / Fold change vs veh, DTX4 / RFU, TFCP2 / Fold change vs veh, TFCP2 / RFU, GMCL1 /// GMCL1P1 / Fold change vs veh, GMCL1 /// GMCL1P1 / RFU, AEBP2 / Fold change vs veh, AEBP2 / RFU, SNHG1 /// SNORD22 /// SNORD25 /// SNORD26 /// SNORD27 /// SNORD28 /// SNORD29 /// SNORD31 / Fold change vs veh, SNHG1 /// SNORD22 /// SNORD25 /// SNORD26 /// SNORD27 /// SNORD28 /// SNORD29 /// SNORD31 / Fold change (Aza/veh), C12orf56 (ProbeSet 11735607_a_at) / Fold change (ACY-1035/veh), C12orf56 (ProbeSet 11735607_a_at) / Fold change (Aza/veh), FGFR1OP (ProbeSet 11751329_s_at) / Fold change (ACY-1035/veh), FGFR1OP (ProbeSet 11751329_s_at) / Fold change (Aza/veh), VPS36 (ProbeSet 11739960_a_at) / Fold change (ACY-1035/veh), VPS36 (ProbeSet 11739960_a_at) / RFU SYPL1 (11715823_x_at) / Fold change /veh SYPL1 (11715823_x_at) / RFU IGFBP7 (11715501_s_at) / Fold change /veh IGFBP7 (11715501_s_at) / RFU REEP3 (11722064_at) / Fold change /veh REEP3 (11722064_at) / RFU IGLL1 (11728026_x_at) / Fold change /veh IGLL1 (11728026_x_at): dose or concentration left out as unconfirmed
# Conditions: ProbeSet 11721521_at; LIST B
structure (smiles),measurement,value
Nc1ccc(-c2cccs2)cc1NC(=O)c1ccc2c(c1)cc(C1CC1)n2CCN1CCOCC1 [ACY-1035],"Fold change vs veh, ZDHHC17",0.90
